This passage reports EC50 results from patent US10968225B2, “Compounds and compositions for the treatment of cystic fibrosis” (Fondazione Istituto Italiano Di Tecnologia, priority 2017, dated 2021).

One test deals with T1, mutant CFTR (Homo sapiens, UniProt P13569, DEL508-508).
T1 construct: expressed in transfected cells
T1 sequence (P13569 with tags, fused parts or gaps DEL508-508): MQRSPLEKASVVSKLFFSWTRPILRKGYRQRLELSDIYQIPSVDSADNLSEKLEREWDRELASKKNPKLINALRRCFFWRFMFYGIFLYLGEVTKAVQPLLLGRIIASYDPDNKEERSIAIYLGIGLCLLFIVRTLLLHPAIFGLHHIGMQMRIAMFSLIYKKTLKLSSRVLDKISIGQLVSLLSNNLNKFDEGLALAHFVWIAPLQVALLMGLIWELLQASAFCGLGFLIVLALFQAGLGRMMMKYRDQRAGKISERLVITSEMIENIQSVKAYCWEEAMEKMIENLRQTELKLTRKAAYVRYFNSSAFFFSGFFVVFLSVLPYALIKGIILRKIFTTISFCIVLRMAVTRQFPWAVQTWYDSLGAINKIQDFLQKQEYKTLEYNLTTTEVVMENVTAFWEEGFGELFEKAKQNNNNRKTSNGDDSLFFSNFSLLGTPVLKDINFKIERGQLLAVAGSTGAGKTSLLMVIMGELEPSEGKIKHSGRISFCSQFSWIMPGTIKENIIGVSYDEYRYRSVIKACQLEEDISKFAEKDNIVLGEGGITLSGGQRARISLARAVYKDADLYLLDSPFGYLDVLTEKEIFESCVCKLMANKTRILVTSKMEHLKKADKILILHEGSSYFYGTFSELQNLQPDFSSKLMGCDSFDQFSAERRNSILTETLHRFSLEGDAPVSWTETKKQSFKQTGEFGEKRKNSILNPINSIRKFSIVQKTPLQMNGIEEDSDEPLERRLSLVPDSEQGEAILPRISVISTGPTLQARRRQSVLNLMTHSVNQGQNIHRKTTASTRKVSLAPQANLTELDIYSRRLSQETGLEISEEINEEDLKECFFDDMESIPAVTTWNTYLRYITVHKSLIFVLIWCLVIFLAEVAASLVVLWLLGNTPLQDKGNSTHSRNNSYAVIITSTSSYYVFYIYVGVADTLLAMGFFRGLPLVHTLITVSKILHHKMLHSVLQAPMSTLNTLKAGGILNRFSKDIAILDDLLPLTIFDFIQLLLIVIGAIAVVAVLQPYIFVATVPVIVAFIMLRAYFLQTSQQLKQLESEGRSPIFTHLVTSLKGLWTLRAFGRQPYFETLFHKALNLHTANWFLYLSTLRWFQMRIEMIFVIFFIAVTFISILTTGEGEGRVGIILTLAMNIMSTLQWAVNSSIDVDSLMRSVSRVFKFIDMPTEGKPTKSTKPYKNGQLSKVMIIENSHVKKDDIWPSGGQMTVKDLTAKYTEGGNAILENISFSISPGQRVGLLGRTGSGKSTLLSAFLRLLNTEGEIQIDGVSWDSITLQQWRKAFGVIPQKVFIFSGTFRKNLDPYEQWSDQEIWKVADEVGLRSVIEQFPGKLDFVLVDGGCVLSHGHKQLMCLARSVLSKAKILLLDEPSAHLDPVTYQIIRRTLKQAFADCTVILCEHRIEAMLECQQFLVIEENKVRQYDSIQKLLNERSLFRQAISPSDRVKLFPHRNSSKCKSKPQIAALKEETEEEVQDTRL
Kind of test: Fluorescence (HS-YFP) assay for CFTR activity, corrector assay. Format: cell-based. The note with it: CFBE41o- and FRT cells with stable expression of mutant CFTR, read-out: activity (EC50).
Usually EC50 stands for the midpoint of the concentration-response curve. With `CN(C(=O)c1cccc(-n2nc(C(F)(F)F)c3c2C(Oc2ccc(CC(=O)O)cc2)CCC3)c1)c1ccc2c(c1)OC(F)(F)O2` (racemic) [Compound 318, 2-[4-[[1-[3-[(2,2-Difluoro-1,3-benzodioxol-5-yl)-methyl-carbamoyl]phenyl]-3-(trifluoromethyl)-4,5,6,7-tetrahydroindazol-7-yl]oxy]phenyl]acetic acid], the EC50 was under 1000 nM. Turning to `CN(C(=O)c1cccc(-n2nc(C(F)(F)F)c3c2C[C@H]2CC[C@@H]3N2)c1)c1ccc2c(c1)OCO2` (single isomer, unassigned) [Compound 048, (4R,7S)- or (4S,7R)—N-(Benzo[d][1,3]dioxol-5-yl)-N-methyl-3-(3-(trifluoromethyl)-5,6,7,8-tetrahydro-4,7-epiminocyclohepta [c]pyrazol-1(4H)-yl)benzamide], the EC50 was under 1000 nM. On to `CN(C(=O)c1cccc(-n2nc(C(F)(F)F)c3c2C[C@H]2CC[C@@H]3N2C)c1)c1ccc2c(c1)OCO2` (single isomer, unassigned) [Compound 050, (4R,7S)- or (4S,7R)—N-(Benzo[d][1,3]dioxol-5-yl)-N-methyl-3-(9-methyl-3-(trifluoromethyl)-5,6,7,8-tetrahydro-4,7-epiminocyclohepta[c]pyrazol-1(4H)-yl)benzamide], for which the concentration for a half-maximal effect (EC50) is under 1000 nM. On to `CN(C(=O)c1cccc(-n2nc(C(F)(F)F)c3c2C[C@H]2CC[C@@H]3N2C(=O)OC(C)(C)C)c1)c1ccc2c(c1)OCO2` (single isomer, unassigned) [Compound 052, (4R,7S)- or (4S,7R)-tert-Butyl-1-(3-(benzo[d][1,3]dioxol-5-yl(methyl)carbamoyl)phenyl)-3-(trifluoromethyl)-1,4,5,6,7,8-hexahydro-4,7-epiminocyclohepta[c]pyrazole-9-carboxylate], for which the EC50 is under 1000 nM. Same read-out and setting: in the case of `CN(C(=O)c1cccc(-n2nc(C(F)(F)F)c3c2C[C@@H]2CC[C@H]3N2C(=O)OC(C)(C)C)c1)c1ccc2c(c1)OCO2` (single isomer, unassigned) [Compound 053, (4S,7R)- or (4R,7S)-tert-Butyl-1-(3-(benzo[d][1,3]dioxol-5-yl(methyl)carbamoyl)phenyl)-3-(trifluoromethyl)-1,4,5,6,7,8-hexahydro-4,7-epiminocyclohepta[c]pyrazole-9-carboxylate] it was under 1000 nM. For `CN(C(=O)c1cccc(-n2nc(C(F)(F)F)c3c2C[C@H]2CC[C@@H]3N2C(=O)C(C)(C)C)c1)c1ccc2c(c1)OCO2` (single isomer, unassigned) [Compound 087, (4R,7S)- or (4S,7R)—N-(Benzo[d][1,3]dioxol-5-yl)-N-methyl-3-[(9-pivaloyl-3-(trifluoromethyl)-5,6,7,8-tetrahydro-4,7-epiminocyclohepta[c]pyrazol-1(4H)-yl)]benzamide], the EC50 was under 1000 nM.

As for `CN(C(=O)c1cccc(-n2nc(C(F)(F)F)c3c2C[C@@H]2CC[C@H]3N2C(=O)C(C)(C)C)c1)c1ccc2c(c1)OCO2` (single isomer, unassigned) [Compound 088, (4R,7S)- or (4S,7R)—N-(Benzo[d][1,3]dioxol-5-yl)-N-methyl-3-[(9-pivaloyl-3-(trifluoromethyl)-5,6,7,8-tetrahydro-4,7-epiminocyclohepta[c]pyrazol-1(4H)-yl)]benzamide], the EC50 was under 1000 nM.

As to `Cc1noc(C)c1S(=O)(=O)N1[C@@H]2CC[C@H]1c1c(C(F)(F)F)nn(-c3cccc(C(=O)N(C)c4ccc5c(c4)OCO5)c3)c1C2` (single isomer, unassigned) [Compound 128, (4S,7R)- or (4R,7S)—N-(Benzo[d][1,3]dioxol-5-yl)-3-(9-((3,5-dimethylisoxazol-4-yl)sulfonyl)-3-(trifluoromethyl)-5,6,7,8-tetrahydro-4,7-epiminocyclohepta[c]pyrazol-1(4H)-yl)-N-methylbenzamide], the EC50 is under 1000 nM.

As for `Cc1noc(C)c1S(=O)(=O)N1[C@H]2CC[C@@H]1c1c(C(F)(F)F)nn(-c3cccc(C(=O)N(C)c4ccc5c(c4)OCO5)c3)c1C2` (single isomer, unassigned) [Compound 129, (4R,7S)- or (4S,7R)—N-(Benzo[d][1,3]dioxol-5-yl)-3-(9-((3,5-dimethylisoxazol-4-yl)sulfonyl)-3-(trifluoromethyl)-5,6,7,8-tetrahydro-4,7-epiminocyclohepta[c]pyrazol-1(4H)-yl)-N-methylbenzamide], the EC50 was under 1000 nM. On to `Cc1n[nH]c(C)c1S(=O)(=O)N1[C@H]2CC[C@@H]1c1c(C(F)(F)F)nn(-c3cccc(C(=O)N(C)c4ccc5c(c4)OCO5)c3)c1C2` (single isomer, unassigned) [Compound 130, (4R,7S)- or (4S,7R)—N-(Benzo[d][1,3]dioxol-5-yl)-3-(9-((3,5-dimethyl-1H-pyrazol-4-yl)sulfonyl)-3-(trifluoromethyl)-5,6,7,8-tetrahydro-4,7-epiminocyclohepta[c]pyrazol-1(4H)-yl)-N-methylbenzamide], for which the EC50 was under 1000 nM. On the same count and under the same terms, for `CN(C(=O)c1cccc(-n2nc(C(F)(F)F)c3c2C[C@@H]2CC[C@H]3N2C2CCC2)c1)c1ccc2c(c1)OCO2` (single isomer, unassigned) [Compound 131, (4R,7S)- or (4S,7R)—N-(Benzo[d][1,3]dioxol-5-yl)-3-(9-cyclobutyl-3-(trifluoromethyl)-5,6,7,8-tetrahydro-4,7-epiminocyclohepta[c]pyrazol-1(4H)-yl)-N-methylbenzamide] the value was under 1000 nM. On the same count and under the same terms, in the case of `CN(C(=O)c1cccc(-n2nc(C(F)(F)F)c3c2C(Oc2ccc(C(=O)O)cc2)CCC3)c1)c1ccc2c(c1)OC(F)(F)O2` (single isomer, unassigned) [Compound 150, (R) or (S)-4-[[1-[3-[(2,2-Difluoro-1,3-benzodioxol-5-yl)-methyl-carbamoyl]phenyl]-3-(trifluoromethyl)-4,5,6,7-tetrahydroindazol-7-yl]oxy]benzoic acid] it was under 1000 nM; in that of `CN(C(=O)c1cccc(-n2nc(C(F)(F)F)c3c2C(Oc2ccc(C(=O)O)cc2)CCC3)c1)c1ccc2c(c1)OC(F)(F)O2` (single isomer, unassigned) [Compound 151, (S) or (R)-4-[[1-[3-[(2,2-Difluoro-1,3-benzodioxol-5-yl)-methyl-carbamoyl]phenyl]-3-(trifluoromethyl)-4,5,6,7-tetrahydroindazol-7-yl]oxy]benzoic acid], under 1000 nM.

The test is the same for the next values; noted with them: activity (EC50), CFBE41o- and FRT cells with stable expression of mutant CFTR.
On to `CN(C(=O)c1cccc(-n2nc(C(F)(F)F)c3c2C[C@@H]2CC[C@H]3N2)c1)c1ccc2c(c1)OCO2` (single isomer, unassigned) [Compound 049, (4S,7R)- or (4R,7S)—N-(Benzo[d][1,3]dioxol-5-yl)-N-methyl-3-(3-(trifluoromethyl)-5,6,7,8-tetrahydro-4,7-epiminocyclohepta [c]pyrazol-1(4H)-yl)benzamide], for which the EC50 is 1000 to 2000 nM. The molecule `CN(C(=O)c1cccc(-n2nc(C(F)(F)F)c3c2C[C@@H]2CC[C@H]3N2C)c1)c1ccc2c(c1)OCO2` (single isomer, unassigned) [Compound 051, (4S,7R)- or (4R,7S)—N-(Benzo[d][1,3]dioxol-5-yl)-N-methyl-3-(9-methyl-3-(trifluoromethyl)-5,6,7,8-tetrahydro-4,7-epiminocyclohepta[c]pyrazol-1(4H)-yl)benzamide] had an EC50 of 1000 to 2000 nM.
